From patent publication US11744898B2, “Multi-arm polymer conjugates of TLR agonist compounds and related immunotherapeutic treatment methods” (Nektar Therapeutics, priority 2017, dated 2023)
Blank lines part the entries; values can stand above or below the compound they belong to.

Experiments:
CT26 tumor cells [1] = assay: Murine CT-26 colon tumor model, two flanks; 800 μg 4-arm-PEG20k-CM-N-R848 intra-/peritumorally day 0, RSLAIL-2 0.8 mg/kg i.v. days 0, 9, 18; format: in vivo, Balb/c mice
CT26 tumor cells [2] = assay: Effect of treatment in vivo on intratumoral immune cell types by flow cytometry, CT26 tumors; set-up: species or system Balb/c mice
Procedure: The other (contralateral) tumor was not dosed with R848.
Immune cell subtypes were measured by flow cytometry.

[3] = test system: proinflammatory cytokines IFNα, IFNγ, TNFα, IL-6 and IL-12; assay: Plasma cytokine induction after Compound 6 or resiquimod with staggered RSLAIL-2 in CT26 model; format: in vivo, Balb/c mice
Procedure: The concentration of proinflammatory cytokines IFNα, IFNγ, TNFα, IL-6 and IL-12 was determined in plasma by multiplex protein measurement assay at indicated time points post dose.

[4] = Plasma and tumor concentrations following single 10 μg (R848 equivalents) intratumoral administration to CT26 tumor bearing mice; format: in vivo, Balb/c mice; set-up: unit not given here
Procedure: (§1) Studies were conducted to evaluate the single dose pharmacokinetics of R848 and Compound 6 in plasma and tumor tissue.
(§2) Plasma and tumor tissues were collected at pre-determined time points for analysis of R848 and Compound 6 using a qualified LC-MS/MS method.

[5] = Plasma and tumor concentrations following single 10 μg (R848 equivalents) intratumoral administration to EMT6 tumor bearing mice; format: in vivo, Balb/c mice; set-up: unit not given here
Procedure: as §1, §2

[6] = Plasma and tumor concentrations following single 10 μg (R848 equivalents) intratumoral administration to CT26 tumor bearing mice; format: in vivo, Balb/c mice; set-up: key: +<10; 10≤++<100; 100≤+++<1,000; 1,000≤++++; BLQ is Below the Limit of Quantitation
Procedure: as §1, §2

[7] = Plasma and tumor concentrations following single 10 μg (R848 equivalents) intratumoral administration to EMT6 tumor bearing mice; format: in vivo, Balb/c mice; set-up: key: +<10; 10≤++<100; 100≤+++<1,000; 1,000≤++++; BLQ is Below the Limit of Quantitation
Procedure: as §1, §2

[8] = plasma, 10 μg intra/peritumoral

Compound: 4-arm-PEG20k-CM-N—R848 [Compound 1]
- Survival Proportions (CT26 tumor cells [1]; day 0 after treatment start): 100%
- Survival Proportions (CT26 tumor cells [1]; day 12 after treatment start): 80%
- Survival Proportions (CT26 tumor cells [1]; day 16 after treatment start): 70%
- Survival Proportions (CT26 tumor cells [1]; day 19 after treatment start): 40%
- Survival Proportions (CT26 tumor cells [1]; day 21 after treatment start): 30%
- Survival Proportions (CT26 tumor cells [1]; day 47 after treatment start (end of experiment)): 30%
- animals with a complete response (both treated and untreated side tumors eliminated) (CT26 tumor cells [1]; end of experiment, day 47): 20%
- animals with a partial response (one of the two tumors eradicated) (CT26 tumor cells [1]; end of experiment, day 47): 10%

- R848 plasma concentration ([4]; 0.25 hr post-dose): ++ (10≤++<100)
- R848 tumor concentration ([4]; 0.25 hr post-dose): ++ (1,000≤++<10,000)
- R848 plasma concentration ([4]; 2.00 hr post-dose): + (+<10)
- R848 tumor concentration ([4]; 2.00 hr post-dose): + (+<1,000)
- R848 plasma concentration ([4]; 6.00 hr post-dose): + (+<10)
- R848 tumor concentration ([4]; 6.00 hr post-dose): + (+<1,000)
- R848 plasma concentration ([4]; 24.00 hr post-dose): + (+<10)
- R848 tumor concentration ([4]; 24.00 hr post-dose): + (+<1,000)
- R848 tumor concentration ([4]; 72.00 hr post-dose): + (+<1,000)
- R848 tumor concentration ([4]; 96.00 hr post-dose): + (+<1,000)
- R848 tumor concentration ([4]; 120.00 hr post-dose): + (+<1,000)
- R848 tumor concentration ([4]; 144.00 hr post-dose): + (+<1,000)
- R848 plasma concentration ([5]; 0.25 hr post-dose): +++ (100≤+++<1,000)
- R848 tumor concentration ([5]; 0.25 hr post-dose): ++ (1,000≤++<10,000)
- R848 plasma concentration ([5]; 2.00 hr post-dose): + (+<10)
- R848 tumor concentration ([5]; 2.00 hr post-dose): + (+<1,000)
- R848 plasma concentration ([5]; 6.00 hr post-dose): + (+<10)
- R848 tumor concentration ([5]; 6.00 hr post-dose): + (+<1,000)
- R848 tumor concentration ([5]; 24.00 hr post-dose): + (+<1,000)
- R848 tumor concentration ([5]; 72.00 hr post-dose): + (+<1,000)
- R848 tumor concentration ([5]; 96.00 hr post-dose): + (+<1,000)
- R848 tumor concentration ([5]; 120.00 hr post-dose): + (+<1,000)
- R848 tumor concentration ([5]; 144.00 hr post-dose): + (+<1,000)
- R848 plasma concentration ([6]; 72.00 hr post-dose): BLQ
- R848 plasma concentration ([6]; 96.00 hr post-dose): BLQ
- R848 plasma concentration ([6]; 120.00 hr post-dose): BLQ
- R848 plasma concentration ([6]; 144.00 hr post-dose): BLQ
- R848 plasma concentration ([7]; 24.00 hr post-dose): BLQ
- R848 plasma concentration ([7]; 72.00 hr post-dose): BLQ
- R848 plasma concentration ([7]; 96.00 hr post-dose): BLQ
- R848 plasma concentration ([7]; 120.00 hr post-dose): BLQ
- R848 plasma concentration ([7]; 144.00 hr post-dose): BLQ
Compound: CCOCc1nc2c(N)nc3ccccc3c2n1CC(C)(C)O [Compound R848, 1-(4-Amino-2-(ethoxymethyl)-1H-imidazo[4,5-c]quinolin-1-yl)-2-methylpropan-2-ol]
- CD8 T Cells (Percent of Vehicle) (CT26 tumor cells [2]): 95%
- CD11c+ CD8+ Dendritic Cells (Percent of Vehicle) (CT26 tumor cells [2]): 135%
- Macrophages (Percent of Vehicle) (CT26 tumor cells [2]): 80%
- Monocytes (Percent of Vehicle) (CT26 tumor cells [2]): 160%
- Neutrophils (Percent of Vehicle) (CT26 tumor cells [2]): 500%
- T Regulatory Cells (Percent of Vehicle) (CT26 tumor cells [2]): 20%
- pro-inflammatory cytokine induction in blood, in words ([3]; 10 μg single intra/peritumoral dose): robust pro-inflammatory cytokine induction in blood
- time of peak level of IFN-γ [3, 8]: 6 h
- time of peak levels of IFNα, TNFα, IL-6 and IL-12 [3, 8]: 2 h
